The values below come from PubChem BioAssay (NCI).

SMILES strings stand for the structures.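 Exposure lasted 48 hours, with cells grown in 96-well plates and compounds tested at five concentrations. TGI: total growth inhibition.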

In general, TGI refers to the concentration giving total growth inhibition. A higher TGI goes with lower sensitivity of the cells.

Some test systems named below: COLO 205 colon; HCC-2998 colon; KM12 colon; MDA-N; MOLT-4 leukemia; NCI-H226 lung; NCI-H460 lung; PC-3 prostate; RPMI-8226 leukemia; RXF 393 renal; SK-OV-3 ovarian; SNB-75 CNS; SR leukemia; EKVX NSCLC; HT29 colon; MDA-MB-435; UACC-257 melanoma; NCI-H522 lung; DU-145 prostate.
Holding throughout (test): DTP human tumour cell line panel, 48 h

As for `CO/C(=N\N=C\c1ccc(Cl)c(Cl)c1)c1ccncc1`, the TGI in the assay on COLO 205 colon, in the assay on HCC-2998 colon, with KM12 colon, with MDA-N, with MOLT-4 leukemia and in the assay with NCI-H226 lung was greater than 10 µM in each case. Further, the TGI in the assay with NCI-H460 lung, in the assay with PC-3 prostate, in the assay with RPMI-8226 leukemia, in the assay with RXF 393 renal, with SK-OV-3 ovarian and in the assay with SNB-75 CNS was greater than 10 µM each time. Besides, the TGI in the assay on SR leukemia was greater than 10 µM.
On to `CC(Cn1c2c(c3cc(O)ccc31)CCc1ccc(O)cc1-2)N(C)C` (stereo not given), for which the TGI was 52.9 µM with EKVX NSCLC; 35.8 µM in the assay with HT29 colon; 29.9 µM with KM12 colon; 41 µM in the assay with MDA-MB-435; 48.1 µM with MDA-N; greater than 100 µM with MOLT-4 leukemia. Besides, the TGI with NCI-H226 lung is 37.3 µM; with NCI-H460 lung, 31.8 µM; with PC-3 prostate, 27.6 µM; in the assay on RPMI-8226 leukemia, greater than 100 µM; with RXF 393 renal, 53.2 µM; with SK-OV-3 ovarian it was 77 µM. For the same molecule, the TGI with SNB-75 CNS is 51.2 µM; in the assay on SR leukemia it was greater than 100 µM; in the assay on UACC-257 melanoma, 44.6 µM.
Consider `CCOc1ccc(NC(=O)C(=O)Nn2c(N)nnc2N)cc1`, for which the concentration for total growth inhibition (TGI) in the assay with EKVX NSCLC, in the assay on HCC-2998 colon, in the assay with HT29 colon, in the assay with KM12 colon, in the assay with MDA-MB-435 and in the assay with MDA-N was greater than 100 µM throughout. The concentration for total growth inhibition (TGI) in the assay on MOLT-4 leukemia, in the assay with NCI-H226 lung, with NCI-H460 lung, with NCI-H522 lung, in the assay with PC-3 prostate and with RPMI-8226 leukemia was greater than 100 µM throughout. For the same molecule, the TGI with RXF 393 renal, in the assay with SK-OV-3 ovarian, with SNB-75 CNS, with SR leukemia and in the assay with UACC-257 melanoma was greater than 100 µM in each case.
Turning to `CC1=CCC(C(C)(C)NC(=O)c2ccccc2)C/C1=N/O` (stereo not given), the TGI in the assay with COLO 205 colon, with DU-145 prostate, in the assay on EKVX NSCLC, in the assay with HCC-2998 colon, in the assay on HT29 colon and with KM12 colon was greater than 100 µM each time. The TGI with MDA-MB-435, in the assay on MDA-N, in the assay with MOLT-4 leukemia, with NCI-H460 lung, in the assay on NCI-H522 lung and in the assay with PC-3 prostate was greater than 100 µM in each case. Moreover, the TGI in the assay on SK-OV-3 ovarian, in the assay with SNB-75 CNS and in the assay on UACC-257 melanoma was greater than 100 µM throughout.
`C1CCCN(NC2=NCCO2)CC1`: the TGI in the assay with COLO 205 colon, with EKVX NSCLC, in the assay with HCC-2998 colon, in the assay on HT29 colon, with KM12 colon and in the assay with MDA-MB-435 was greater than 100 µM in each case. Besides, the TGI with MDA-N, with MOLT-4 leukemia, in the assay on NCI-H226 lung, in the assay on NCI-H460 lung, with NCI-H522 lung and in the assay on PC-3 prostate was greater than 100 µM throughout. In addition, the TGI in the assay on RPMI-8226 leukemia, in the assay with RXF 393 renal, in the assay on SNB-75 CNS, in the assay with SR leukemia and in the assay with UACC-257 melanoma was greater than 100 µM in each case.
Turning to `O=C1Oc2ccccc2C(=O)/C1=C/N1C(=O)CNC1=S`, the TGI in the assay with COLO 205 colon, in the assay on DU-145 prostate, in the assay with EKVX NSCLC, in the assay on HCC-2998 colon, in the assay on HT29 colon and in the assay on KM12 colon was greater than 100 µM in each case. Besides, the TGI with MDA-MB-435, in the assay with MDA-N, with MOLT-4 leukemia, in the assay on NCI-H226 lung, with NCI-H460 lung and with NCI-H522 lung was greater than 100 µM each time. Further, the total growth inhibition concentration (TGI) with PC-3 prostate, with RPMI-8226 leukemia, in the assay on RXF 393 renal, in the assay with SK-OV-3 ovarian and in the assay with UACC-257 melanoma was greater than 100 µM throughout.
As to `CC(=O)/C(=C\I)c1ccccc1`, the TGI in the assay with COLO 205 colon amounted to 3.14 µM; with DU-145 prostate, 15.3 µM; in the assay on EKVX NSCLC, 33.3 µM; with HT29 colon it was 2.29 µM; in the assay with KM12 colon, 13.3 µM; in the assay on MDA-MB-435, 12.8 µM. The total growth inhibition concentration (TGI) amounted to 3.28 µM in the assay with MDA-N; 5.35 µM in the assay on MOLT-4 leukemia; 47.6 µM with NCI-H226 lung; 24.7 µM in the assay with NCI-H460 lung; 5.08 µM in the assay with PC-3 prostate; 5.26 µM in the assay on RPMI-8226 leukemia. Also, the TGI in the assay on RXF 393 renal was found to be 3.36 µM; in the assay on SK-OV-3 ovarian it was 26.5 µM; in the assay with SNB-75 CNS it was 20.3 µM; with UACC-257 melanoma, 15.5 µM.
